One test deals with ErbB2 V777L (Homo sapiens (Human), UniProt P04626, V777L). Description: ErbB enzyme assay (CisBio HTRF-KinEASE-TK), ErbB2 V777L. It counts as biochemical. The gist of the method: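 HTRF KinEASE-TK tyrosine-kinase read-out of substrate phosphorylation after a final 1 h at ambient temperature, from the 655/620 nm emission ratio.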
On the technique in general: Time-resolved FRET reads energy transfer from a long-lived donor to a nearby acceptor.

A further test concerns the target EGFR WT (Homo sapiens (Human), UniProt P00533). Briefly: ErbB enzyme assay (CisBio HTRF-KinEASE-TK), EGFR WT. It counts as biochemical. The conditions noted are these: ATP at Km (25 μM), 1 h incubation. The essentials: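 Tyrosine kinase HTRF, 1 h RT reaction → quench (Sa-XL665/TK-Ab-Cryptate) → 1 h RT → 655/620 ratio.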

Structures can show the parent of a compound that is named as a salt. Some results are limits rather than exact numbers.

Chain of ErbB2 V777L (P04626 23-1255 V777L): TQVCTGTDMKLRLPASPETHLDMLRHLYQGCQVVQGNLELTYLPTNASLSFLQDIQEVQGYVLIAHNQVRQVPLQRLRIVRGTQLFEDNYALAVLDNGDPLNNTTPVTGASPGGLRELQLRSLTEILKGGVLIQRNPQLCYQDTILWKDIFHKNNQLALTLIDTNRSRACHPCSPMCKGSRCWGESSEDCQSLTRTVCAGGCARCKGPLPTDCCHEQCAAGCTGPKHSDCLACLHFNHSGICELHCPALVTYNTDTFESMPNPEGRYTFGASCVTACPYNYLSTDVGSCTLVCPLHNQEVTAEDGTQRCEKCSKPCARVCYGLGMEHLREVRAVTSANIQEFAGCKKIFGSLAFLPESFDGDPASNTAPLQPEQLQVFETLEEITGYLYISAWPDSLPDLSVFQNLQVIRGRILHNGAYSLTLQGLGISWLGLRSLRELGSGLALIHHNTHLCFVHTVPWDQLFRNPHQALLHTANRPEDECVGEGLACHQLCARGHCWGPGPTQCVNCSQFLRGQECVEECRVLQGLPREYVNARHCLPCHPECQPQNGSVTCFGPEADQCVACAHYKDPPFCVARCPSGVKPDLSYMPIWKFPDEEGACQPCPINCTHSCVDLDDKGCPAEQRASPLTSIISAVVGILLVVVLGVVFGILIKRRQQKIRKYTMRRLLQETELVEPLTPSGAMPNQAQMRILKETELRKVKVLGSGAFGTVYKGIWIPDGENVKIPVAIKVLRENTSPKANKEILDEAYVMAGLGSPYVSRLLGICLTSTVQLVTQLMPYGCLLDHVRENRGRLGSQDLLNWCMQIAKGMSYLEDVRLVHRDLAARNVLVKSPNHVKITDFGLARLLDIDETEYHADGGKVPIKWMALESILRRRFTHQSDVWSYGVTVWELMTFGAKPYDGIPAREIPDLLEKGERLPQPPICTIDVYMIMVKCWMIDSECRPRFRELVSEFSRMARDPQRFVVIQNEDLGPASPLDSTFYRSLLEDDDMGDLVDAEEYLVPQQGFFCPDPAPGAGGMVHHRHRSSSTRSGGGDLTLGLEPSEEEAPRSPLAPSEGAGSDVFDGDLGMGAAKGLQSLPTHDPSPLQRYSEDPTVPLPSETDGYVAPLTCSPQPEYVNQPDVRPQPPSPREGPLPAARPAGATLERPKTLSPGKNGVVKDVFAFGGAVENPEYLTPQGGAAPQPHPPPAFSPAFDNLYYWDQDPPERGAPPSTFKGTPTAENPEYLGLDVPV
Chain of EGFR WT (P00533 25-1210): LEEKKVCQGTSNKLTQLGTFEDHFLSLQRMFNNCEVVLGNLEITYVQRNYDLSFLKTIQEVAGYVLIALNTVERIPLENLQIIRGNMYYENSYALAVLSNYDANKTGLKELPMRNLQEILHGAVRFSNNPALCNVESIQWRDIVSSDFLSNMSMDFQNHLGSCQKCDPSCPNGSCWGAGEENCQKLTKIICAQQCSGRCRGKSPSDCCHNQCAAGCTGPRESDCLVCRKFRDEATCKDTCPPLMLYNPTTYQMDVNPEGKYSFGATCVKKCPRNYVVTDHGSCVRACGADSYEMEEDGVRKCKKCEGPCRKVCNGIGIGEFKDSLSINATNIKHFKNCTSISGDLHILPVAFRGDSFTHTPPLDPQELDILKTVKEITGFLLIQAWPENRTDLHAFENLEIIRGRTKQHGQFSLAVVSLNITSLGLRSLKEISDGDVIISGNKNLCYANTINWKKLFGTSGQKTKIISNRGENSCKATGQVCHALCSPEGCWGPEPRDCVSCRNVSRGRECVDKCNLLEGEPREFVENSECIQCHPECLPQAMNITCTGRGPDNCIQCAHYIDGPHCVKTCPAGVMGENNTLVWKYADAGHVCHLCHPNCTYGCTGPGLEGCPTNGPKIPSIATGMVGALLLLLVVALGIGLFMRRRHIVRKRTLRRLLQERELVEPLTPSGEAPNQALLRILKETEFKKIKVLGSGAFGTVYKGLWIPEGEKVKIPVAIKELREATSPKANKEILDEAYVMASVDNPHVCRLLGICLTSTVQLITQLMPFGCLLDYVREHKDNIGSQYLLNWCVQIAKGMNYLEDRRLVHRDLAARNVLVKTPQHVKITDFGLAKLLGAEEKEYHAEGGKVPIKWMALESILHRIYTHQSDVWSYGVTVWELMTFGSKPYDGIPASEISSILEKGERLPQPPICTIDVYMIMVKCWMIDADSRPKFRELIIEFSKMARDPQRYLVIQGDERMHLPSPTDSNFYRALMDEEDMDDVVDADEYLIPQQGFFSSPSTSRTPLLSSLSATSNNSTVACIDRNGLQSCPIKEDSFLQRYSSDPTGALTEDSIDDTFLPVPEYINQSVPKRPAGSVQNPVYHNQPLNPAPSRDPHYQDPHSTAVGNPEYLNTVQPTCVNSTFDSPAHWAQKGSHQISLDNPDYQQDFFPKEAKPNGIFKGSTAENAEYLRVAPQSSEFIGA

Turning to `C=CC(=O)N1CCN(c2ccc3ncnc(Nc4ccc(Oc5ccc6c(c5)ncn6C(F)F)c(C)c4)c3n2)C[C@@H]1C1CC1` [Compound 278, (S)-1-(2-cyclopropyl-4-(4-((4-((1-(difluoromethyl)-1H-benzo[d]imidazol-5-yl)oxy)-3-methylphenyl)amino)pyrido[3,2-d]pyrimidin-6-yl)piperazin-1-yl)prop-2-en-1-one], the 50% inhibitory concentration (IC50) at ErbB2 V777L fell in the range of 100 to 500 nM; against EGFR WT it was 500 to 1000 nM.
The matching figures for `C=CC(=O)N1CCN(c2ncc3ncnc(Nc4ccc(Oc5ccc6c(c5)nnn6C)c(C)c4F)c3n2)CC[C@@H]1C` [Compound 169, (S)-1-(4-(8-((2-fluoro-3-methyl-4-((1-methyl-1H-benzo[d][1,2,3]triazol-5-yl)oxy)phenyl)amino)pyrimido[5,4-d]pyrimidin-2-y1)-7-methyl-1,4-diazepan-1-yl)prop-2-en-1-one]: 100 to 500 nM and 500 to 1000 nM.
Take `C=C1CCN([C@H]2CCN(c3ncc4ncnc(Nc5ccc(Oc6ccn7ncnc7c6)c(C)c5)c4n3)C2)C1=O` [Compound 239, (S)-1′-(8-((4-([1,2,4]triazolo[1,5-a]pyridin-7-yloxy)-3-methylphenyl)amino)pyrimido[5,4-d]pyrimidin-2-yl)-3-methylene-[1,3′-bipyrrolidin]-2-one]: the values for the IC50 against ErbB2 V777L and on EGFR WT were 50 to 100 nM and 500 to 1000 nM, respectively.
The matching figures for `C=CC(=O)N[C@@H]1CCCN(c2ccc3ncnc(Nc4ccc(Oc5ccc6c(c5)nnn6C)c(C)c4F)c3n2)[C@@H]1C` [Compound 268, N-((2R,3R)-1-(4-((2-fluoro-3-methyl-4-((1-methyl-1H-benzo[d][1,2,3]triazol-5-yl)oxy)phenyl)amino)pyrido[3,2-d]pyrimidin-6-yl)-2-methylpiperidin-3-yl)acrylamide]: 50 to 100 nM and 100 to 500 nM.
The matching figures for `C=CC(=O)N1CCN(c2ccc3ncnc(Nc4ccc(Oc5ccc6c(c5)nnn6C)c(C)c4)c3n2)C[C@H]1CC` [Compound 294, (R)-1-(2-ethyl-4-(4-((3-methyl-4-((1-methyl-1H-benzo[d][1,2,3]triazol-5-yl)oxy)phenyl)amino)pyrido[3,2-d]pyrimidin-6-yl)piperazin-1-yl)prop-2-en-1-one]: 100 to 500 nM and 100 to 500 nM.
On to `C=CC(=O)N1CCN(c2ncc3ncnc(Nc4cc(C)c(Oc5ccc6c(c5)nnn6C)c(F)c4)c3n2)C[C@H]1C` [Compound 155, (R)-1-(4-(8-((3-fluoro-5-methyl-4-((1-methyl-1H-benzo[d][1,2,3]triazol-5-yl)oxy)phenyl)amino)pyrimido[5,4-d]pyrimidin-2-y1)-2-methylpiperazin-1-yl)prop-2-en-1-one], for which the IC50 lay in the range of 100 to 500 nM at ErbB2 V777L and 500 to 1000 nM against EGFR WT.
For `C=CC(=O)N1CCN(c2ccc3ncnc(Nc4cc(F)c(Oc5ccc6c(c5)nnn6C)c(C)c4F)c3n2)C[C@H]1C` [Compound 326, (R)-1-(4-(4-((2,5-difluoro-3-methyl-4-((1-methyl-1H-benzo[d][1,2,3]triazol-5-yl)oxy)phenyl)amino)pyrido[3,2-d]pyrimidin-6-yl)-2-methylpiperazin-1-yl)prop-2-en-1-one] the same measures were 50 to 100 nM and 100 to 500 nM.
For `C=CC(=O)N1CCN(c2ccc3ncnc(Nc4c(OC)cc(Oc5ccc6c(c5)nnn6C)c(C)c4F)c3n2)CC1` [Compound 251, 1-(4-(4-((2-fluoro-6-methoxy-3-methyl-4-((1-methyl-1H-benzo[d][1,2,3]triazol-5-yl)oxy)phenyl)amino)pyrido[3,2-d]pyrimidin-6-yl)piperazin-1-yl)prop-2-en-1-one], the IC50 against ErbB2 V777L and against EGFR WT was 100 to 500 nM in each case.
Consider `C=CC(=O)NC1CCN(c2ccc3ncnc(Nc4ccc(Oc5ccc6c(c5)nnn6C)c(C)c4F)c3n2)CC1` [Compound 272, N-(1-(4-((2-fluoro-3-methyl-4-((1-methyl-1H-benzo[d][1,2,3]triazol-5-yl)oxy)phenyl)amino)pyrido[3,2-d]pyrimidin-6-yl)piperidin-4-yl)acrylamide], for which the IC50 on ErbB2 V777L and against EGFR WT was 100 to 500 nM in each case.
With `Cc1cc(Nc2ncnc3cnc(N4CCN(C(=O)/C=C/CN5CCCC5)CC4)nc23)ccc1Oc1ccc2c(c1)nnn2C` [Compound 52, (E)-1-(4-(8-((3-methyl-4-((1-methyl-1H-benzo[d][1,2,3]triazol-5-yl)oxy)phenyl)amino)pyrimido [5,4-d]pyrimidin-2-yl)piperazin-1-y169yrrolidineolidin-1-yl)but-2-en-1-one], the IC50 is 50 to 100 nM on ErbB2 V777L and less than 50 nM on EGFR WT.
With `C=CC(=O)N1CCC[C@@H](N(C)c2ncc3ncnc(Nc4ccc(Oc5ccc6c(c5)nnn6C)c(C)c4)c3n2)C1` [Compound 223, (R)-1-(3-(methyl(8-((3-methyl-4-((1-methyl-1H-benzo[d][1,2,3]triazol-5-yl)oxy)phenyl)amino)pyrimido[5,4-d]pyrimidin-2-yl)amino)piperidin-1-yl)prop-2-en-1-one], the results for the IC50 against ErbB2 V777L and against EGFR WT were 100 to 500 nM and 500 to 1000 nM, respectively.
For `C=CC(=O)N1C2CCCC1CC(c1ccc3ncnc(Nc4cc(C)c(Oc5ccc6c(c5)nnn6C)cc4OC)c3n1)C2` (centres unmarked) [Compound 401, 1-(3-(4-((2-methoxy-5-methyl-4-((1-methyl-1H-benzo[d][1,2,3]triazol-5-yl)oxy)phenyl)amino)pyrido[3,2-d]pyrimidin-6-yl)-9-azabicyclo[3.3.1]nonan-9-yl)prop-2-en-1-one trifluoroacetatexc] the same measures were 50 to 100 nM and 100 to 500 nM.
The matching figures for `C=CC(=O)N1C2COCC1CC(c1ccc3ncnc(Nc4ccc(Oc5ccc6c(c5)nnn6C)c(C)c4)c3n1)C2` (centres unmarked) [Compound 396, 1-(7-(4-((3-methyl-4-((1-methyl-1H-benzo[d][1,2,3]triazol-5-yl)oxy)phenyl)amino)pyrido[3,2-d]pyrimidin-6-y1)-3-oxa-9-azabicyclo[3.3.1]nonan-9-yl)prop-2-en-1-one trifluoroacetate]: 50 to 100 nM and 100 to 500 nM.
The matching figures for `C=CC(=O)N1CCN(c2ncc3ncnc(Nc4ccc(Oc5cc6ncn(C)c6nc5C)c(C)c4)c3n2)CC1` [Compound 135, 1-(4-(8-((4-((3,5-dimethyl-3H-imidazo[4,5-b]pyridin-6-yl)oxy)-3-methylphenyl)amino)pyrimido[5,4-d]pyrimidin-2-yl)piperazin-1-yl)prop-2-en-1-one]: 50 to 100 nM and 100 to 500 nM.
Take `C=CC(=O)N1C2CCCC1CC(c1ccc3ncnc(Nc4ccc(Oc5ccc6c(c5)nnn6C)c(C)c4)c3n1)C2` (centres unmarked) [Compound 395, 1-(3-(4-((3-methyl-4-((1-methyl-1H-benzo[d][1,2,3]triazol-5-yl)oxy)phenyl)amino)pyrido[3,2-d]pyrimidin-6-yl)-9-azabicyclo[3.3.1]nonan-9-yl)prop-2-en-1-one trifluoroacetate]: the IC50 against ErbB2 V777L and at EGFR WT was 100 to 500 nM each time.
Turning to `C=CC(=O)N1CC2CN(c3ncc4ncnc(Nc5ccc(Oc6ccc7c(c6)nnn7C)c(C)c5)c4n3)CC2C1` (centres unmarked) [Compound 27, 1-(5-(8-((3-methyl-4-((1-methyl-1H-benzo[d][1,2,3]triazol-5-yl)oxy)phenyl)amino)pyrimido[5,4-d]pyrimidin-2-yl)hexahydropyrrolo[3,4-c]pyrrol-2(1H)-y1)prop-2-en-1-one], the IC50 against ErbB2 V777L was 100 to 500 nM; on EGFR WT, not below 1000 nM.

As a reminder, the IC50 is the concentration that inhibits the measured activity by half. Higher therefore signals lower potency.

The values above are taken from patent publication US20250129078A1, “ERBB2 INHIBITORS” (Cogent Biosciences, Inc., priority 2023, published 2025).
